{"source": "patent US20090176817A1", "about": "“Method of Treatment of Diarrhea-Predominant Irritable Bowel Syndrome in a Subject” (priority 2005, published 2009)", "key": {"[1]": {"assay": "Study S241.1.111: relative bioavailability and food effect, 2 mg tablet vs oral solution", "type": "in vivo, human", "conditions": "human, in vivo; for AUC(0-inf) / AUC(0-t) / Cmax / Tmax / half-life: both sexes; for AUC(0-t): AUC(0-last); for half-life: T½", "method": "Subjects were randomized to receive a cilansetron 2 mg tablet after an overnight fast, a cilansetron 2 mg tablet after a high-fat breakfast, and a cilansetron 2 mg oral solution after an overnight fast during the three treatment periods, with a 7-day washout between periods. Serial blood sampling was performed up to 24 hours following each treatment, and plasma pharmacokinetics parameters for cilansetron and its metabolites, (4R)-hydroxy cilansetron and (4S)-hydroxy cilansetron, were estimated. FIG. 4, FIG. 5, and FIG. 6 present mean plasma concentration-time profiles for cilansetron and its metabolites following treatment with the cilansetron tablet and oral solution. Table 2.7.1.2.2 presents descriptive statistics for the pharmacokinetic parameters of cilansetron and its metabolites for the tablet and oral solution, and the results of statistical comparisons between treatments (tablet versus solution).\nSubjects were randomized to receive a cilansetron 2 mg tablet after an overnight fast, a cilansetron 2 mg tablet after a high-fat breakfast, and a cilansetron 2 mg oral solution after an overnight fast during the three treatment periods, with a 7-day washout between periods. Serial blood sampling was performed up to 24 hours following each treatment and plasma pharmacokinetics parameters for cilansetron and its metabolites, (4R)-hydroxy cilansetron and (4S)-hydroxy cilansetron, were estimated. FIG. 7, FIG. 8, and FIG. 9 present mean plasma concentration-time profiles for cilansetron and its metabolites following treatment with the cilansetron tablet under fasted conditions and following a high-fat meal. Table 2.7.1.2.4 presents descriptive statistics for the pharmacokinetic parameters of cilansetron and its metabolites for the tablet under fed and fasted conditions, and the results of statistical comparisons between treatments (fed versus fasted)."}, "[2]": {"assay": "Study S.241.2.112: population pharmacokinetics (NONMEM) in IBS patients", "type": "in vivo, human", "conditions": "human, in vivo; for half-life: both sexes", "method": "The pharmacokinetics and pharmacodynamics of cilansetron following multiple oral administration in non-constipated IBS patients have been examined in a population pharmacokinetic (NONMEM) analysis of a Phase II trial. The study was a double-blind, placebo-controlled, randomized, multi-center, parallel-group, dose ranging study to investigate the Efficacy and safety of four different doses of cilansetron (1 mg, 2 mg, 8 mg, and 16 mg TID) in patients with established IBS (non-constipated patients who suffered from IBS according to the Rome Criteria and were not bothered by constipation for >25% of their IBS episodes). The study was to be performed in approximately 50 centers. A sufficient number of patients were to be recruited to insure that at least 88 patients per treatment group were evaluable for efficacy and to get a total of 440 completers. […] There were interim assessments at the end of the 4th week (Visit 3; Day 29) and 8th week (Visit 4; Day 57) and a final assessment at the end of the 12th week (Visit 5; poststudy). Single blood samples for population pharmacokinetic analyses were drawn at Visits 3, 4, 5 or early termination, at 31 of the participating sites. With the exception of Visit 3, the timing of the blood draw in relation to the previous dose was not specified for any of the samples collected, but the time of sampling and the time of last dosing was recorded for each sample collected. For Visit 3, the blood sample had to be taken between 15 minutes and 2 hours of the morning or midday dose.\nVarious covariates were screened during development of the population pharmacokinetic model, including age, height, weight, body surface area, body mass index, race, gender, smoking status, serum creatinine levels, serum creatinine clearance, total bilirubin levels, cilansetron dose, and concomitant medication usage. Some efficacy and safety parameters were also evaluated in this population analysis using correlation analyses. Efficacy parameters evaluated included overall relief of IBS symptoms (Responder or Non-Responder), intensity of abdominal pain, number of stools and stool consistency, symptoms of abdominal and rectal discomfort (straining, urgency, feeling of incomplete defecation, passage of mucus, bloating, and feeling of abdominal distension), and upper GI symptoms at Visit 5 (vomiting, heartburn, early satiety, postprandial fullness, sensation of prolonged digestion, and nausea). Safety parameters evaluated included the top ten most frequently observed adverse events (constipation, flatulence, nausea, abdominal pain, headache, dyspepsia, infection, gastrointestinal disorders, anorexia, and diarrhea).\nThe population analysis included data from 160 patients (63 males and 97 females) with a median age of 45.5 years (range: 20-81 years), median weight of 78 kg (range: 47-121 kg), and median height of 170 cm (range: 147-196 cm). More than 90% of the patients were White and 18.8% of the patients were considered smokers. […] A total of 392 quantifiable concentrations for cilansetron, 393 quantifiable concentrations for (4S)-hydroxy cilansetron, and 397 quantifiable concentrations for (4R)-hydroxy cilansetron from 160 patients were included in the NONMEM datasets for population analyses.\nFIG. 54, FIG. 55, and FIG. 56 present mean steady-state plasma concentration-time profiles for cilansetron and its 4-hydroxy metabolites, and Table 2.7.2.3.29 and Table 2.7.2.3.30 present descriptive statistics for the estimated pharmacokinetic parameters of cilansetron and its 4-hydroxy metabolites from the final covariate population pharmacokinetic model. The cilansetron concentration data were best described by a one-compartment model with first-order input, an absorption lag time, and first-order elimination. A log-normal distribution was used to describe the variability of clearance, volume of distribution and absorption rate constant between patients. The residual error was best described by an exponential model. […]"}}}
{"smiles": "Cc1nccn1C[C@H]1CCc2c(c3cccc4c3n2CCC4)C1=O", "note": "[Cilansetron, (R)-(−)-4,5,6,8,9,10-hexahydro-10-[(2-methyl-1H-imidazol-1-yl)methyl]-11H-pyrido-[3,2,1-jk]-carbazol-11-one]", "values": [{"measurement": "AUC(0-inf)", "setting": "[1]; 2 mg", "result": 22.8, "unit": "ng·h/mL"}, {"measurement": "AUC(0-t)", "setting": "[1]; 2 mg", "result": 22.4, "unit": "ng·h/mL"}, {"measurement": "Cmax", "setting": "[1]; 2 mg", "result": 8.24, "unit": "ng/mL"}, {"measurement": "Tmax", "setting": "[1]; 2 mg", "result": 1, "unit": "h"}, {"measurement": "half-life", "setting": "[1]; 2 mg", "result": 1.42, "unit": "h"}, {"measurement": "AUC(0-inf)", "setting": "[1]; po, 2 mg", "result": 20.7, "unit": "ng·h/mL"}, {"measurement": "AUC(0-t)", "setting": "[1]; po, 2 mg", "result": 20.2, "unit": "ng·h/mL"}, {"measurement": "Cmax", "setting": "[1]; po, 2 mg", "result": 7.55, "unit": "ng/mL"}, {"measurement": "Tmax", "setting": "[1]; po, 2 mg", "result": 1, "unit": "h"}, {"measurement": "half-life", "setting": "[1]; po, 2 mg", "result": 1.48, "unit": "h"}, {"measurement": "Intrasubject % CV for AUC", "setting": "[1]; both", "result": 19.2, "unit": "%"}, {"measurement": "Intrasubject % CV for Cmax", "setting": "[1]; both", "result": 24.5, "unit": "%"}, {"measurement": "AUC(0-inf) increase under fed conditions", "setting": "[1]; both, 2 mg", "result": 20, "unit": "%"}, {"measurement": "AUC(0-inf) ratio fed/fasted", "setting": "[1]; both, 2 mg", "result": 121, "unit": "%"}, {"measurement": "Cmax ratio fed/fasted", "setting": "[1]; both, 2 mg", "result": 101, "unit": "%"}, {"measurement": "AUC(0-inf) ratio tablet/oral solution", "setting": "[1]; both, po", "result": 99, "unit": "%"}, {"measurement": "Cmax ratio tablet/oral solution", "setting": "[1]; both, po", "result": 108, "unit": "%"}, {"measurement": "half-life", "setting": "[2]; 1 mg", "result": 4.76, "unit": "h"}, {"measurement": "half-life", "setting": "[2]; 2 mg", "result": 4.3, "unit": "h"}, {"measurement": "half-life", "setting": "[2]; 8 mg", "result": 4.5, "unit": "h"}, {"measurement": "half-life", "setting": "[2]; 16 mg", "result": 4.5, "unit": "h"}, {"measurement": "Apparent oral clearance decrease with concomitant medications", "setting": "[2]; both, po", "result": 38.6, "unit": "%"}, {"measurement": "Apparent oral clearance increase in smokers", "setting": "[2]; both, po", "result": 32.2, "unit": "%"}, {"measurement": "Increase of mean apparent oral clearance in smokers", "setting": "[2]; both, po", "result": "approximately 32%"}, {"measurement": "CL/F", "setting": "[2]; 1 mg", "result": 28.3, "unit": "L/h"}, {"measurement": "CL/F", "setting": "[2]; 2 mg", "result": 34.1, "unit": "L/h"}, {"measurement": "CL/F", "setting": "[2]; 8 mg", "result": 34.2, "unit": "L/h"}, {"measurement": "CL/F", "setting": "[2]; 16 mg", "result": 37.3, "unit": "L/h"}]}
